Measured values reported in ChEMBL document CHEMBL1697731, “Cheminformatics analysis of assertions mined from literature that describe drug-induced liver injury in different species” (Chem Res Toxicol, 2010).

How the values were obtained:
[1] = test system: Hepatotoxicity; test: Literature-mined compound from Fourches et al multi-species drug-induced liver injury (DILI) dataset, effect in humans; conditions: human
[2] = test system: Hepatotoxicity; test: Literature-mined compound from Fourches et al multi-species drug-induced liver injury (DILI) dataset, effect in rodents; conditions: rodentia
[3] = test system: Hepatotoxicity; test: Literature-mined compound from Fourches et al multi-species drug-induced liver injury (DILI) dataset, effect in non-rodents

Row | Compound | Hepatotoxicity [1] | Hepatotoxicity [2] | Hepatotoxicity [3] | Hepatotoxicity ([1]; Liver) | Hepatotoxicity ([2]; Liver) | Hepatotoxicity ([3]; Liver)
1 | COc1cc(NC(C)CCCN)c2ncccc2c1 (stereo unspecified) [PRIMAQUINE] | drug-induced liver injury reported | drug-induced liver injury reported | no drug-induced liver injury reported |  |  | 
2 | CCC1(c2ccccc2)C(=O)NCNC1=O [PRIMIDONE] | drug-induced liver injury reported | no drug-induced liver injury reported | drug-induced liver injury reported |  |  | 
3 | CCCN(CCC)S(=O)(=O)c1ccc(C(=O)O)cc1 [PROBENECID] | drug-induced liver injury reported | drug-induced liver injury reported | no drug-induced liver injury reported |  |  | 
4 | CC(C)(Sc1cc(C(C)(C)C)c(O)c(C(C)(C)C)c1)Sc1cc(C(C)(C)C)c(O)c(C(C)(C)C)c1 [PROBUCOL] | drug-induced liver injury reported | drug-induced liver injury reported | drug-induced liver injury reported |  |  | 
5 | CCN(CC)CCNC(=O)c1ccc(N)cc1 [PROCAINAMIDE] | drug-induced liver injury reported | drug-induced liver injury reported | no drug-induced liver injury reported |  |  | 
6 | CNNCc1ccc(C(=O)NC(C)C)cc1 [PROCARBAZINE] | no drug-induced liver injury reported | drug-induced liver injury reported | no drug-induced liver injury reported |  |  | 
7 | CN1CCN(CCCN2c3ccccc3Sc3ccc(Cl)cc32)CC1 [PROCHLORPERAZINE] | drug-induced liver injury reported | no drug-induced liver injury reported | no drug-induced liver injury reported |  |  | 
8 | [H]/N=C(\N/C(=N/[H])Nc1ccc(Cl)cc1)NC(C)C [PROGUANIL] | drug-induced liver injury reported | no drug-induced liver injury reported | no drug-induced liver injury reported |  |  | 
9 | CC(CN1c2ccccc2Sc2ccccc21)N(C)C (stereo unspecified) [PROMETHAZINE] | no drug-induced liver injury reported | drug-induced liver injury reported | drug-induced liver injury reported |  |  | 
10 | CC(C)c1cccc(C(C)C)c1O [PROPOFOL] |  |  |  | drug-induced liver injury reported | drug-induced liver injury reported | drug-induced liver injury reported
11 | CCC(=O)O[C@](Cc1ccccc1)(c1ccccc1)[C@H](C)CN(C)C [PROPOXYPHENE] | drug-induced liver injury reported | drug-induced liver injury reported | no drug-induced liver injury reported |  |  | 
12 | CC(C)NCC(O)COc1cccc2ccccc12 (stereo unspecified) [PROPRANOLOL] | drug-induced liver injury reported | drug-induced liver injury reported | drug-induced liver injury reported |  |  | 
13 | CCCc1cc(=O)[nH]c(=S)[nH]1 [PROPYLTHIOURACIL] |  |  |  | drug-induced liver injury reported | drug-induced liver injury reported | no drug-induced liver injury reported
14 | CCCc1cc(C(N)=S)ccn1 [PROTIONAMIDE] | drug-induced liver injury reported | no drug-induced liver injury reported | no drug-induced liver injury reported |  |  | 
15 | NC(=O)c1cnccn1 [PYRAZINAMIDE] | drug-induced liver injury reported | drug-induced liver injury reported | no drug-induced liver injury reported |  |  | 
16 | CNC(=O)OCc1cccc(COC(=O)NC)n1 [PYRICARBATE] | drug-induced liver injury reported | drug-induced liver injury reported | no drug-induced liver injury reported |  |  | 
17 | Cc1ncc(COP(=O)(O)O)c(C=O)c1O [PYRIDOXAL PHOSPHATE ANHYDROUS] | no drug-induced liver injury reported | drug-induced liver injury reported | no drug-induced liver injury reported |  |  | 
18 | CCc1nc(N)nc(N)c1-c1ccc(Cl)cc1 [PYRIMETHAMINE] | drug-induced liver injury reported | drug-induced liver injury reported | no drug-induced liver injury reported |  |  | 
19 | CCN(CC)CCCC(C)Nc1c2ccc(Cl)cc2nc2ccc(OC)cc12 (stereo unspecified) [QUINACRINE] | drug-induced liver injury reported | drug-induced liver injury reported | drug-induced liver injury reported |  |  | 

Row | Compound | Hepatotoxicity [1] | Hepatotoxicity [2] | Hepatotoxicity [3] | Hepatotoxicity ([1]; Liver) | Hepatotoxicity ([2]; Liver) | Hepatotoxicity ([3]; Liver)
20 | C#C[C@]1(O)CC[C@H]2[C@@H]3CCc4cc(OC5CCCC5)ccc4[C@H]3CC[C@@]21C [QUINESTROL] | no drug-induced liver injury reported | drug-induced liver injury reported | no drug-induced liver injury reported |  |  | 
21 | C=C[C@H]1C[N@@]2CC[C@H]1C[C@@H]2[C@@H](O)c1ccnc2ccc(OC)cc12 [QUINIDINE] | drug-induced liver injury reported | drug-induced liver injury reported | no drug-induced liver injury reported |  |  | 
22 | CCO[C@@H](Cc1ccc(OCCN2c3ccccc3Oc3ccccc32)cc1)C(=O)O [RAGAGLITAZAR] | no drug-induced liver injury reported | drug-induced liver injury reported | no drug-induced liver injury reported |  |  | 
23 | Cc1nc2ccc(CN(C)c3ccc(C(=O)N[C@@H](CCC(=O)O)C(=O)O)s3)cc2c(=O)[nH]1 [RALTITREXED] | drug-induced liver injury reported | no drug-induced liver injury reported | no drug-induced liver injury reported |  |  | 
24 | CNC(=C[N+](=O)[O-])NCCSCc1ccc(CN(C)C)o1 [RANITIDINE] | drug-induced liver injury reported | drug-induced liver injury reported | drug-induced liver injury reported |  |  | 
25 | O=C(NC(Cc1cc(=O)[nH]c2ccccc12)C(=O)O)c1ccc(Cl)cc1 (stereo unspecified) [REBAMIPIDE] | no drug-induced liver injury reported | drug-induced liver injury reported | no drug-induced liver injury reported |  |  | 
26 | Cc1oc(-c2ccccc2)nc1CCOc1ccc(CC2C(=O)NOC2=O)cc1 (stereo unspecified) [REGLITAZAR] | no drug-induced liver injury reported | drug-induced liver injury reported | no drug-induced liver injury reported |  |  | 
27 | COC(=O)[C@H]1[C@H]2C[C@@H]3c4[nH]c5cc(OC)ccc5c4CCN3C[C@H]2C[C@@H](OC(=O)c2cc(OC)c(OC)c(OC)c2)[C@@H]1OC [RESERPINE] | no drug-induced liver injury reported | drug-induced liver injury reported | no drug-induced liver injury reported |  |  | 
28 | CC1=C(/C=C/C(C)=C/C=C/C(C)=C/CO)C(C)(C)CCC1 [RETINOL] |  |  |  | drug-induced liver injury reported | drug-induced liver injury reported | drug-induced liver injury reported
29 | NC(=O)c1ncn([C@@H]2O[C@H](CO)[C@@H](O)[C@H]2O)n1 [RIBAVIRIN] | drug-induced liver injury reported | drug-induced liver injury reported | no drug-induced liver injury reported |  |  | 
30 | Cc1cc2nc3c(=O)[nH]c(=O)nc-3n(C[C@H](O)[C@H](O)[C@H](O)CO)c2cc1C [RIBOFLAVIN] | drug-induced liver injury reported | no drug-induced liver injury reported | no drug-induced liver injury reported |  |  | 
31 | CO[C@H]1/C=C/O[C@@]2(C)Oc3c(C)c(O)c4c(c3C2=O)C2=NC3(CCN(CC(C)C)CC3)NC2=C(NC(=O)/C(C)=C\C=C\[C@H](C)[C@H](O)[C@@H](C)[C@@H](O)[C@@H](C)[C@H](OC(C)=O)[C@@H]1C)C4=O [RIFABUTIN] |  |  |  | drug-induced liver injury reported | drug-induced liver injury reported | no drug-induced liver injury reported
32 | CO[C@H]1/C=C/O[C@@]2(C)Oc3c(C)c(O)c4c(O)c(c(/C=N/N5CCN(C)CC5)c(O)c4c3C2=O)NC(=O)/C(C)=C\C=C\[C@H](C)[C@H](O)[C@@H](C)[C@@H](O)[C@@H](C)[C@H](OC(C)=O)[C@@H]1C [RIFAMPIN] | drug-induced liver injury reported | drug-induced liver injury reported | drug-induced liver injury reported |  |  | 
33 | CO[C@H]1/C=C/O[C@@]2(C)Oc3c(C)c(O)c4c(O)c(cc(O)c4c3C2=O)NC(=O)/C(C)=C\C=C\[C@H](C)[C@H](O)[C@@H](C)[C@@H](O)[C@@H](C)[C@H](OC(C)=O)[C@@H]1C [RIFAMYCIN] | drug-induced liver injury reported | drug-induced liver injury reported | no drug-induced liver injury reported |  |  | 
34 | Nc1nc2ccc(OC(F)(F)F)cc2s1 [RILUZOLE] | drug-induced liver injury reported | no drug-induced liver injury reported | no drug-induced liver injury reported |  |  | 
35 | Cc1c(C(=O)NN2CCCCC2)nn(-c2ccc(Cl)cc2Cl)c1-c1ccc(Cl)cc1 [RIMONABANT] | no drug-induced liver injury reported | drug-induced liver injury reported | no drug-induced liver injury reported |  |  | 
36 | Cc1nc2n(c(=O)c1CCN1CCC(c3noc4cc(F)ccc34)CC1)CCCC2 [RISPERIDONE] | drug-induced liver injury reported | no drug-induced liver injury reported | no drug-induced liver injury reported |  |  | 
37 | CC(NCCc1ccc(O)cc1)C(O)c1ccc(O)cc1.Cl (stereo unspecified) [RITODRINE HYDROCHLORIDE] | no drug-induced liver injury reported | no drug-induced liver injury reported | drug-induced liver injury reported |  |  | 
